Laboratory results taken from patent US9572811B2, “Treatment of dry eye” (PRINCIPIA BIOPHARMA INC., priority 2012, dated 2017).

Molecular target: human recombinant Btk (Homo sapiens (Human), UniProt Q06187)
Assay: Btk enzymatic activity assay (Caliper-based kinase assay)
Format: biochemical
Details: human recombinant Btk 2 nM, ATP 40 μM, peptide substrate 1 μM, room temperature 3 h; read-out: IC50 (μm)
Procedure: A Caliper-based kinase assay (Caliper Life Sciences, Hopkinton, Mass.) was used to measure inhibition of Btk kinase activity of a compound of Formula (I). […] The reaction was then terminated with EDTA, final concentration 20 mM and the phosphorylated reaction product was quantified on a Caliper Desktop Profiler (Caliper LabChip 3000). […] This value is presented as the IC50.

Sequence of human recombinant Btk (Q06187 whole entry): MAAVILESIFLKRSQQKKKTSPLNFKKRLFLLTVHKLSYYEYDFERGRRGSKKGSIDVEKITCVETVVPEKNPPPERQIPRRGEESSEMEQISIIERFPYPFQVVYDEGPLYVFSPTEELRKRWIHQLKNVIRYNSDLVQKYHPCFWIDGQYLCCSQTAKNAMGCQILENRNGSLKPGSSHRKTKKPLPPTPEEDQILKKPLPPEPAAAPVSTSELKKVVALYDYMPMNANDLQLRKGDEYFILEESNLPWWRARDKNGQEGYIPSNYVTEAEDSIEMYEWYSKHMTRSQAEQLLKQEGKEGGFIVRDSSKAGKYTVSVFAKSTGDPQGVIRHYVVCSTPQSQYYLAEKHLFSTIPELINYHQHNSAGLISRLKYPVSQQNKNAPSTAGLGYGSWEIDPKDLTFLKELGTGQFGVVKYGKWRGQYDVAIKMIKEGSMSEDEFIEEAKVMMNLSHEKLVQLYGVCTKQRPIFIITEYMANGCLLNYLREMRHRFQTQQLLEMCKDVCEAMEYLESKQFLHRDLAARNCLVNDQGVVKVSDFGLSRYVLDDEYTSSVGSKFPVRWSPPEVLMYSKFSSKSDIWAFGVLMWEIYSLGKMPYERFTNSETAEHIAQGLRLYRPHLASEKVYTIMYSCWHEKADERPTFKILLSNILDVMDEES

Row | Compound | IC50 [nM]
1 | CNC(C)(C)C=C(C#N)C(=O)N1CCC[C@H]1Cn1nc(-c2ccc(Oc3cccc(F)c3F)cc2F)c2c(N)ncnc21 [Cpd 105B, (S)-2-(2-((4-amino-3-(4-(2,3-difluorophenoxy)-2-fluorophenyl)-1H-pyrazolo[3,4-d]pyrimidin-1-yl)methyl)pyrrolidine-1-carbonyl)-4-methyl-4-(methylamino)pent-2-enenitrile] | 25.5
2 | [C-]#[N+]C(=CC1CC1)C(=O)N1CCC[C@@H](n2nc(-c3ccc(Oc4ccccc4)cc3F)c3c(N)ncnc32)C1 [Cpd 22B] | 2.6
3 | CCOC(C)(C)C=C(C#N)C(=O)N1CCC[C@@H]1Cn1nc(-c2ccc(Oc3ccccc3)cc2F)c2c(N)ncnc21 [Cpd 89A, (R)-2-(2-((4-amino-3-(2-fluoro-4-phenoxyphenyl)-1H-pyrazolo[3,4-d]pyrimidin-1-yl)methyl)pyrrolidine-1-carbonyl)-4-ethoxy-4-methylpent-2-enenitrile] | 3100
4 | COCCNC(C)(C)C=C(C#N)C(=O)N1CCC[C@H]1Cn1nc(-c2ccc(Oc3ccccc3)cc2F)c2c(N)ncnc21 [Cpd 88B, (S)-2-(2-((4-amino-3-(2-fluoro-4-phenoxyphenyl)-1H-pyrazolo[3,4-d]pyrimidin-1-yl)methyl)pyrrolidine-1-carbonyl)-4-((2-methoxyethyl)amino)-4-methylpent-2-enenitrile] | 29
5 | CC(C)(C=C(C#N)C(=O)N1CCC[C@@H]1Cn1nc(-c2ccc(Oc3ccccc3)cc2F)c2c(N)ncnc21)N1CCOCC1 [Cpd 95A, (R)-2-(2-((4-amino-3-(2-fluoro-4-phenoxyphenyl)-1H-pyrazolo[3,4-d]pyrimidin-1-yl)methyl)pyrrolidine-1-carbonyl)-4-methyl-4-morpholinopent-2-enenitrile] | 26.5
6 | CC(C)(C=C(C#N)C(=O)N1CCC[C@H]1Cn1nc(-c2ccc(Oc3ccccc3)cc2F)c2c(N)ncnc21)N1CCOCC1 [Cpd 95B, (S)-2-(2-((4-amino-3-(2-fluoro-4-phenoxyphenyl)-1H-pyrazolo[3,4-d]pyrimidin-1-yl)methyl)pyrrolidine-1-carbonyl)-4-methyl-4-morpholinopent-2-enenitrile] | 3.2
7 | CCOC(C)(C)C=C(C#N)C(=O)N1CCC[C@H]1Cn1nc(-c2ccc(Oc3ccccc3)cc2F)c2c(N)ncnc21 [Cpd 89B, (S)-2-(2-((4-amino-3-(2-fluoro-4-phenoxyphenyl)-1H-pyrazolo[3,4-d]pyrimidin-1-yl)methyl)pyrrolidine-1-carbonyl)-4-ethoxy-4-methylpent-2-enenitrile] | 6600
8 | N#CC(=CC1CC1)C(=O)N1CCC(n2nc(-c3ccc(Oc4ccccc4)cc3)c3c(N)ncnc32)CC1 [Cpd 3, 2-(4-(4-amino-3-(4-phenoxyphenyl)-1H-pyrazolo[3,4-d]pyrimidin-1-yl)piperidine-1-carbonyl)-3-cyclopropylacrylonitrile] | 175
9 | C[C@@H](Cn1nc(-c2ccc(Oc3ccccc3)cc2F)c2c(N)ncnc21)NC(=O)C(C#N)=CC1CC1 [Cpd 197B] | 32.5

Other lines, results leading:

Row | IC50 [nM] | Compound
10 | 5 | N#CC(=CC1CC1)C(=O)N1CCC[C@@H]1Cn1nc(-c2ccc(Oc3c(F)cccc3F)cc2F)c2c(N)ncnc21 [Cpd 44A, (R)-2-(2-((4-amino-3-(2-fluoro-4-(2,6-difluorophenoxy)phenyl)-1H-pyrazolo[3,4-d]pyrimidin-1-yl)methyl)pyrrolidine-1-carbonyl)-3-cyclopropylacrylonitrile]
11 | 3 | N#CC(=CC1CC1)C(=O)N1CCC[C@H]1Cn1nc(-c2ccc(Oc3c(F)cccc3F)cc2F)c2c(N)ncnc21 [Cpd 44B, (S)-2-(2-((4-amino-3-(2-fluoro-4-(2,6-difluorophenoxy)phenyl)-1H-pyrazolo[3,4-d]pyrimidin-1-yl)methyl)pyrrolidine-1-carbonyl)-3-cyclopropylacrylonitrile]
12 | 1.3 | CNC(C)(C)C=C(C#N)C(=O)N1CCC[C@@H]1Cn1nc(-c2ccc(Oc3cccc(F)c3F)cc2F)c2c(N)ncnc21 [Cpd 105A, (R)-2-(2-((4-amino-3-(4-(2,3-difluorophenoxy)-2-fluorophenyl)-1H-pyrazolo[3,4-d]pyrimidin-1-yl)methyl)pyrrolidine-1-carbonyl)-4-methyl-4-(methylamino)pent-2-enenitrile]
13 | 1 | COc1cc(-c2nn(CC3CCCN3C(=O)C(C#N)=CC3CC3)c3ncnc(N)c23)ccc1Oc1ccc(Cl)c(Cl)c1 (stereo not shown) [Cpd 5]
14 | 12 | CC(C)(C=C(C#N)C(=O)N1CCC[C@H]1Cn1nc(-c2ccc(Oc3ccccc3)cc2F)c2c(N)ncnc21)NC1CC1 [Cpd 87B, (S)-2-(2-((4-amino-3-(2-fluoro-4-phenoxyphenyl)-1H-pyrazolo[3,4-d]pyrimidin-1-yl)methyl)pyrrolidine-1-carbonyl)-4-(cyclopropylamino)-4-methylpent-2-enenitrile]
15 | 0.7 | C[C@H](Cn1nc(-c2ccc(Oc3ccccc3)cc2F)c2c(N)ncnc21)NC(=O)C(C#N)=CC(C)(C)N [Cpd 188]
16 | 6 | CN(C)C(C)(C)C=C(C#N)C(=O)N1CCC[C@@H]1Cn1nc(-c2ccc(Oc3cccc(F)c3F)cc2F)c2c(N)ncnc21 [Cpd 106A, (R)-2-(2-((4-amino-3-(4-(2,3-difluorophenoxy)-2-fluorophenyl)-1H-pyrazolo[3,4-d]pyrimidin-1-yl)methyl)pyrrolidine-1-carbonyl)-4-(dimethylamino)-4-methylpent-2-enenitrile]
17 | 14 | N#CC(=CC1CC1)C(=O)NC1CCC(n2nc(-c3ccc(Oc4ccccc4)cc3)c3c(N)ncnc32)CC1 (stereo not shown) [Cpd 11, N-((1s,4s)-4-(4-amino-3-(4-phenoxyphenyl)-1H-pyrazolo[3,4-d]pyrimidin-1-yl)cyclohexyl)-2-cyano-3-cyclopropylacrylamide]
18 | 1.5 | CN(C)C(C)(C)C=C(C#N)C(=O)N1CCC[C@H]1Cn1nc(-c2ccc(Oc3cccc(F)c3F)cc2F)c2c(N)ncnc21 [Cpd 106B, (S)-2-(2-((4-amino-3-(4-(2,3-difluorophenoxy)-2-fluorophenyl)-1H-pyrazolo[3,4-d]pyrimidin-1-yl)methyl)pyrrolidine-1-carbonyl)-4-(dimethylamino)-4-methylpent-2-enenitrile]

Same assay, conditions: read-out: IC50 (μm)

Row | Compound | IC50 [nM]
19 | NC(=O)C(=CC1CC1)C(=O)N1CCC[C@@H](n2nc(-c3ccc(Oc4ccccc4)cc3)c3c(N)ncnc32)C1 [Cpd 30A, (R)-2-(3-(4-amino-3-(4-phenoxyphenyl)-1H-pyrazolo[3,4-d]pyrimidin-1-yl)piperidine-1-carbonyl)-3-cyclopropylacrylamide] | 1.7
